# Measurements taken from patent US20220387403A1, “COMPOUNDS, COMPOSITIONS AND METHODS FOR TREATING NASH, NAFLD, AND OBESITY” (CVI Pharmaceuticals Limited, priority 2019, published 2022).
# Where two headings read alike, the source gives them in different places.
# Tests used:
# ACC = experiment: Western blot of phosphorylated ACC in HepG2 cells; assay type: cell-based, human; conditions: 20 μM, 1, 2 and 3 days
# Method: (§1) Cells were harvested after 1, 2, and 3 days treatment and western blot analysis was conducted using antibodies directed to LDLR and PCSK9. Chicken anti-LDLR was purchased from Abcam, the mouse anti-PCSK9 was purchased from Cayman Chemicals, and anti-pACC was purchased from Cell Signaling.
# (§2) Chicken anti-LDLR was purchased from Abcam and the mouse anti-PCSK9 was purchased from Cayman Chemicals. HepG2 cells cultured in 60-mm dishes were incubated overnight in medium containing 0.5% fetal bovine serum prior to the addition of compounds at 20 uM concentration for 1-3 days. Total cell lysate was isolated and 50 μg of protein was separated on SDS-PAGE and transferred to nitrocellulose membrane for immunoblotting with anti-LDLR, anti-PCSK9, and anti-p-ACC.
# hyperlipidemic rabbits [1] = experiment: Lipid lowering effects and blood chemistry in hyperlipidemic rabbits; conditions: for serum total cholesterol level: in mM
# Method: (§4) Forty-two male Japanese rabbits were fed the cholesterol enriched rabbit diet for two weeks to induce hypercholesterolemia. […] Serum samples were collected at day 0 (before the drug treatment) and day 7. […] All tested animals were sacrificed at the end of a total of 14 days treatment and serum samples were analyzed for TC, LDL-C, TG, and HDL-C. In addition to lipid profiles, a number of biochemical parameters were also analyzed to aseesee the effects of drug treatments on liver function, muscle function, kidney function, and heart function.
# hyperlipidemic rabbits [2] = conditions: rabbit, in vivo
# Method: as §4
# PCSK9 = experiment: Western blot of PCSK9 protein in HepG2 cells; assay type: cell-based, human; conditions: for expression of PCSK9 protein (in words): 20 μM, 1, 2 and 3 days
# Method: as §1
# (§3) To determine whether the stimulatory effects of statins on LDLR protein expression could be enhanced by some new compounds invented herein, HepG2 cells were untreated or treated with a low dose of rosuvastatin (RSV) at 0.3 and 1 uM concentration in the absence or the presence of Compound 127(+), or treated with low concentrations of Compound 127(+) alone for 2 days. Western blot analysis was conducted to examine LDLR and PCSK9 protein levels. Compound 127(+) is the single enantiomer of compound 127 with a positive optical rotation. […] Furthermore, the inducing effects of RSV on PCSK9 protein levels were antagonized by compound 127(+).
# as §2
# LDLR = experiment: Western blot of LDLR protein in HepG2 cells; assay type: cell-based, human; conditions: for LDLR protein levels (in words): 20 μM, 1, 2 and 3 days
# Method: as §1, §3, §2
# Male Wister rats [3] = experiment: Food intake and body weight in Wister rats under a high fat and high cholesterol diet; assay type: in vivo, rat; conditions: 4-week treatment
# Method: The food intake and body weight gains were measured every week during the 4-week treatment period. […] In the first week, the amount of food consumed was decreased in CRDL-treated group. […] The ability of CRDL to activate AMPK signaling pathway to increase energy expenditure and to reduce fat accumulation likely contributes to this weight reducing effect.
# Male Wister rats [4] = experiment: Lipid lowering effects in Wister rats under a high fat and high cholesterol diet; assay type: in vivo, rat; conditions: 75 mg/kg daily oral
# Method: Male Wister rats were used as an animal model to examine the in vivo effects of (14R, 13S)-CRDL in plasma lipid levels.
# In one experiment, 18 Wister male rats under a high fat and high cholesterol diet were divided into 2 groups. One group was given (14R, 13S)-CRDL hydrochloride salt orally at a daily dose of 75 mg/kg by an orogastric tube for 4 weeks, and the control group received daily treatment of equal amount of vehicle (0.1 M sodium phosphate, pH 3.5). Serum lipid levels were measured weekly.
# At the end of treatment, Rats were sacrificed and blood and sera were collected to measure several critical parameters for liver function and kidney function. […] Kidney function and blood glucose level were not changed by the treatment.
# [5] = after 14 days of drug treatment, mean, n = 6
# [6] = treatment day 0 (before the drug treatment), mean ± SD, n = 6
# [7] = treatment day 4, 128(+)/128(−) 30 mg/kg, SMV/ATV 3 mg/kg once a day oral gavage
# [8] = treatment day 7, 128(+)/128(−) 30 mg/kg, SMV/ATV 3 mg/kg once a day oral gavage
# [9] = treatment day 10, from day 7 128(+)/128(−) 60 mg/kg, SMV/ATV 10 mg/kg
# [10] = treatment day 14, from day 7 128(+)/128(−) 60 mg/kg, SMV/ATV 10 mg/kg
# [11] = with rosuvastatin 0.3 and 1 uM, 2 days
structure (smiles),measurement,setting,value
"COc1ccc2c(c1)CCN1Cc3c(ccc(OC)c3OS(=O)(=O)c3cccc(F)c3)CC21 (stereo not drawn) [128(−), 3,10-Dimethxoy-5,6,7,8,13,13a-hexahydroisoquinolino[2,1-b]isoquinolin-9-yl 3-fluorobenzenesulfonate]",ACC phosphorylation (in words),ACC,induced
same,TC and LDL-C reduction (in words),hyperlipidemic rabbits [1]; 14 days treatment,strong TC and LDL-C reduction
same,HDL-C,hyperlipidemic rabbits [1]; [5],3.5 mmol/L
same,LDL-C,hyperlipidemic rabbits [1]; [5],24.4 mmol/L
same,TC,hyperlipidemic rabbits [1]; [5],29.7 mmol/L
same,TG,hyperlipidemic rabbits [1]; [5],0.9 mmol/L
same,serum total cholesterol level,hyperlipidemic rabbits [1]; [6],28.5 ± 6.3
same,serum total cholesterol level,hyperlipidemic rabbits [1]; [7],29.9 ± 8.0
same,serum total cholesterol level,hyperlipidemic rabbits [1]; [8],29.0 ± 7.9
same,serum total cholesterol level,hyperlipidemic rabbits [1]; [9],27.9 ± 5.2
same,serum total cholesterol level,hyperlipidemic rabbits [1]; [10],29.7 ± 4.9
same,ALP,hyperlipidemic rabbits [2],155.5 IU/L
same,ALT,hyperlipidemic rabbits [2],50.2 IU/L
same,AST,hyperlipidemic rabbits [2],20.8 IU/L
same,CK,hyperlipidemic rabbits [2],997.5 U/L
same,CREA,hyperlipidemic rabbits [2],105.2 µmol/L
same,GLU,hyperlipidemic rabbits [2],7.9 mmol/L
same,LDH,hyperlipidemic rabbits [2],50.3 IU/L
same,adverse effect / toxicities (in words),hyperlipidemic rabbits [2],absence of any adverse effect
same,expression of PCSK9 protein (in words),PCSK9,strongly inhibited
same,LDLR protein levels (in words),LDLR,effectively increased
"COc1cc2c(cc1OC)C1Cc3ccc(OC)c(OS(=O)(=O)c4cccc(F)c4)c3CN1CC2 (stereo not drawn) [127(+), 2,3,10-Trimethoxy-5,6,7,8,13,13a-hexahydroisoquinolino[2,1-b]isoquinolin-9-yl 3-fluorobenzenesulfonate]",ACC phosphorylation (in words),ACC,induced
same,expression of PCSK9 protein (in words),PCSK9,strongly inhibited
same,"inducing effects of RSV on PCSK9 protein levels, combination (in words)",PCSK9; [11],antagonized
same,LDLR protein levels (in words),LDLR,effectively increased
same,"stimulatory effects of statins on LDLR protein expression, combination (in words)",LDLR; [11],further improved
"COc1cc2c(cc1OC)[C@H]1[C@@H](C)c3ccc(OC)c(OC)c3CN1CC2 [CRDL, corydaline]",body weight,Male Wister rats [3],maintained constant
same,adverse effects during the entire treatment,Male Wister rats [4]; 4 weeks,No any adverse effects
same,Kidney function and blood glucose level,Male Wister rats [4]; end of 4-week treatment,not changed
same,serum levels of AST and ALT vs control group,Male Wister rats [4]; end of 4-week treatment,statistically lower
same,"LDL-c level, of control","Male Wister rats [4]; hydrochloride salt, 4 weeks",25.6%
same,"LDL-c level, of day 0","Male Wister rats [4]; hydrochloride salt, 4 weeks",22.4%
same,TC compared to the control group,"Male Wister rats [4]; hydrochloride salt, 4 weeks",33.8%
same,"TC, of the pretreatment level","Male Wister rats [4]; hydrochloride salt, 4 weeks",33.0%
same,"TG level, of the control","Male Wister rats [4]; hydrochloride salt, 4 weeks",29%
same,"TG level, of the pretreatment level (day 0)","Male Wister rats [4]; hydrochloride salt, 4 weeks",27%
"COc1ccc2c(c1)CCN1Cc3c(ccc(OC)c3OS(=O)(=O)c3cccc(F)c3)CC21 (stereo not drawn) [128(+), 3,10-Dimethxoy-5,6,7,8,13,13a-hexahydroisoquinolino[2,1-b]isoquinolin-9-yl 3-fluorobenzenesulfonate]",ACC phosphorylation (in words),ACC,induced
same,ALP,hyperlipidemic rabbits [1]; [5],165.2 IU/L
same,ALT,hyperlipidemic rabbits [1]; [5],68.7 IU/L
same,AST,hyperlipidemic rabbits [1]; [5],20.8 IU/L
same,CK,hyperlipidemic rabbits [1]; [5],1172.3 U/L
same,CREA,hyperlipidemic rabbits [1]; [5],97.2 µmol/L
same,GLU,hyperlipidemic rabbits [1]; [5],7.9 mmol/L
same,HDL-C,hyperlipidemic rabbits [1]; [5],3.6 mmol/L
same,LDH,hyperlipidemic rabbits [1]; [5],47.7 IU/L
same,LDL-C,hyperlipidemic rabbits [1]; [5],29.7 mmol/L
same,TC,hyperlipidemic rabbits [1]; [5],34.2 mmol/L
same,TG,hyperlipidemic rabbits [1]; [5],1.0 mmol/L
same,body weight,hyperlipidemic rabbits [1]; [5],2.6 kg
same,serum total cholesterol level,hyperlipidemic rabbits [1]; [6],28.6 ± 6.7
same,serum total cholesterol level,hyperlipidemic rabbits [1]; [7],31.9 ± 7.5
same,serum total cholesterol level,hyperlipidemic rabbits [1]; [8],33.9 ± 7.2
same,serum total cholesterol level,hyperlipidemic rabbits [1]; [9],33.8 ± 7.8
same,serum total cholesterol level,hyperlipidemic rabbits [1]; [10],34.2 ± 7.4
same,expression of PCSK9 protein (in words),PCSK9,strongly inhibited
same,LDLR protein levels (in words),LDLR,effectively increased
